The source of these data is patent US20190388459A1, “NEW THERAPEUTIC USES” (ATLANTIC PHARMACEUTICALS (HOLDINGS) LTD, priority 2017, published 2019).

For data set [1], the system named is OVA-induced allergic asthma mouse model. The data set is described as follows: Ovalbumin-induced murine model of allergic asthma, BALF analysis. It is filed as in vivo, Balb/c mice. To be noted: Day 28, alicaforsen 1 mM IN 30 μl, dexamethasone 10 mg/kg IP, days 14, 25-27. On the procedure:
Allergic asthma was modeled in female BALB/c mice by initial sensitization to OVA followed by subsequent intranasal challenge of purified OVA.
Mice were monitored throughout the study for changes in body weight and general signs of sickness. Allergic response to OVA was measured by examining bronchoalveolar lavage fluid (BALF) for inflammatory cell influx and the presence of the inflammatory cytokine IL-13.
On days 0 and 14, each animal was administered an IP injection of 200 μL OVA/Alum emulsion containing 100 μg OVA.
On days 14 and 25-27, each animal was administered an intranasal challenge of 30 μL PBS containing 50 μg OVA.
Treatments were performed on the same days as OVA challenge on Study Days 14 and 25-27 (4 total treatments). Treatments were administered 1 hour following OVA challenge.
10 mg/kg dexamethasone was administered in 200 μL volume/animal (intraperitoneal) on Study Days 14 and 25-27 (4 total treatments).
Bonchoalveolar lavage was performed on euthanised animals. Briefly, an angiocatheter was placed into trachea. 1 mL of PBS was instilled into the lungs and allowed to flow back out into the syringe; the PBS was then instilled and removed again. The resultant Bronchoalveolar lavage fluid (BALF) was centrifuged at 500×g for 5 mins.
The non-cellular portion of the BALF was stored at −80° C. The levels of IL-13 were analyzed by Luminex technology.
The cellular portion of the BALF was used to analyze the cell influx. The total number of leukocytes within the BALF and different cell types present were examined via flow cytometry.
Granulocytes: CD45^+; Non-autofluorescent; Gr-1^+
Eosinophils: CD45^+; Non-autofluorescent; Gr-1^+; Siglec F^+

Data set [2] has as its target T1, TLR9 (Homo sapiens, UniProt Q9NR96).
T1 sequence (Q9NR96 26-1032): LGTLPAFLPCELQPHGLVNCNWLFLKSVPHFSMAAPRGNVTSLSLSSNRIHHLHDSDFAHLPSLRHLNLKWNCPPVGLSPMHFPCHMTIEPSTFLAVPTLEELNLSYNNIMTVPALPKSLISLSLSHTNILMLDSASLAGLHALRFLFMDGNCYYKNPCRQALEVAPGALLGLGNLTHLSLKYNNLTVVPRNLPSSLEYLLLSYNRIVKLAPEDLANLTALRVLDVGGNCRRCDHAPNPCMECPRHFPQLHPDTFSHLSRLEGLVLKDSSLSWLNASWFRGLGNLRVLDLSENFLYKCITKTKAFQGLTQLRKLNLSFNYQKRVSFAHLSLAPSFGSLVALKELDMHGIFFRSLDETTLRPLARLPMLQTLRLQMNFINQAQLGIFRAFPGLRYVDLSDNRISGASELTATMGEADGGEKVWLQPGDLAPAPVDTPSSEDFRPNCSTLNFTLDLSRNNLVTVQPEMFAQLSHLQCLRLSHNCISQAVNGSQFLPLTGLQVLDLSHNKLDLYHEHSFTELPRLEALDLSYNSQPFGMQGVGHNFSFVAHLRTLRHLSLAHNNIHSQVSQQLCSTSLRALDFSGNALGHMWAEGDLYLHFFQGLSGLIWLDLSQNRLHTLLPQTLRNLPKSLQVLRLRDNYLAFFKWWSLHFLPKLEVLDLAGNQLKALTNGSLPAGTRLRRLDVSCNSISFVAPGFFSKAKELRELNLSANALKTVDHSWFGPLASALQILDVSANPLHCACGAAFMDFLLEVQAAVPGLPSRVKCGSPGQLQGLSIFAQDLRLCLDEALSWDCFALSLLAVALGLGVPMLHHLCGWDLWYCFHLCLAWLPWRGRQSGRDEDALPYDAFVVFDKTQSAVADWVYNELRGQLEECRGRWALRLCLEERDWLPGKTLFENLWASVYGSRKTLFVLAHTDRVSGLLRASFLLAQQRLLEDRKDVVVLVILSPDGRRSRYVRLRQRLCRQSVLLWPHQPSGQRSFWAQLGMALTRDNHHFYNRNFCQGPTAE
Briefly: TLR-9 antagonist activity with E. coli genomic DNA as the activator. The class given is cell-based.

The next data set relates to dry eye murine model. The data set is described as follows: Scopolamine dry eye murine model, corneal fluorescein staining and clinical signs. It is filed as in vivo, Mouse C57BL/6N. To be noted: for Corneal fluorescein staining score (mean ± SD): one dose per day, topical both eyes. Here is the method:
In a model of mice, the application of transdermal scopolamine patches to the mid-tail is used to reduce aqueous tear production and thus mimic lacrimal gland insufficiency. The function of scopolamine is to induce a pharmacologic blockade of cholinergic receptors in the lacrimal gland and therefore to decrease aqueous production. The desiccation is amplified by adding environmental stress. Animals are exposed to a low-humidity environment and constant airflow.
Mice were treated with transdermal scopolamine administration (0.5 mg/72 h; Scopoderm TTS®). The transdermal scopolamine patch was wrapped near the tail base of the mouse, secured with cellophane tape. Patches were reapplied every 48 hours.
Mice were randomized into 4 groups of 10 animals. The study was divided into 2 experimental sets with 5 animals of each group represented.
All test items, control items and comparator item were instilled in both eyes (5 μL per administration), using a micropipette.
Tear production and corneal defects were assessed at baseline, on Days 3, 6 and 10 using phenol red thread (PRT) and corneal fluorescence staining (CFS), respectively, for each animal of the 4 groups.
Each day, the general clinical signs and the appearance of all animals was observed.
At the different time points the measurement was performed before administration on Day 3 and at least one hour after the second treatment for the other days of the study. The eyes of the animals from all groups were examined by slit-lamp observation using blue light after 0.5% fluorescein eye drop instillation (0.5 μL). Punctuate staining was recorded with the standardized National Eye Institute (NEI) grading system giving a 0-3 score to each of the 5 areas in which the corneas were divided.

Data set [3] is described as follows: Circular Dichroism spectroscopy, thermal stability of secondary structure. It is filed as physicochemical. An excerpt:
SEQ ID NO: 1 was therefore subjected to Circular Dichroism (CD) spectroscopy to gather information about the possible secondary structure. CD of DNA can be utilized to detect all 3 major forms of duplex structure (B, A and Z) and is sensitive to conditions that disrupt the structure such a heating. Of interest was the stability of any secondary structure detected at or above physiologic temperatures.
Additional thermal denaturation of the putative duplex was also studied in the presence of Na^+ at concentrations of 50 mM and 150 mM. Sodium fluoride was used as Cl^− ions interfere with the CD spectra in this UV region.
Additional experiments were conducted to test the influence of Mg^++ and polyamines on the stability of the structure.

Data set [4] addresses T1, TLR9. Briefly: TLR9 activation (agonist) screen, TLR9/NF-kB luciferase reporter HEK 293 cell line. It is filed as cell-based. Also on record: host or cells: HEK 293 (TLR9/NF-kB luciferase reporter line). The following applies: up to concentrations as high as 100 uM. On the procedure: […] Briefly, the TLR9/NF-kB luciferase reporter HEK 293 cell line (Abeomics, San Diego, Calif.) was plated in 96-well white solid plates at 5×10^4 cells per well for 16 h. […] Luciferase activity was then measured and analyzed.
Background: In a reporter assay the amount or activity of a reporter protein is the signal.

The target of data set [5] is T1, TLR9. The data set is described as follows: Inhibition of TLR9-mediated NF-kB induction activated by CpG ODN2006, luciferase reporter HEK 293 cell line. The class given is cell-based. Also noted: host or cells: HEK 293 (TLR9/NF-kB luciferase reporter line). Here is the method:
Briefly, the TLR9/NF-kB luciferase reporter HEK 293 cell line was plated in 96-well white solid plates at 5×10^4 cells per well for 16 h. […] Cells were then treated with 20 ug/ml of CpG ODN2006 to activate TLR9. After 16 h, luciferase activity was measured and analyzed.

In data set [6] the target is T1, TLR9. Briefly: Effect of heat, Na+, Mg++ and spermine pre-treatment on TLR-9 antagonist activity. The class given is cell-based. To be noted: pre-treated with 5 mM spermine, heated to 90° C. and cooled; 1.0 uM ODN2006. Here is the method:
The samples and conditions of these tests are diagramed in FIG. 9.
One sample remained at room temperature while the remaining samples were heated to 90° C. for 3 min and then allowed to cool to room temperature. The samples were then diluted to the indicated concentrations and incubated with the target cells for 1 hr, prior to the addition of 1.0 uM ODN2006 to stimulate TLR-9.

Marks after values point to notes of the source that are not given here. A value given as a limit tells only on which side of the number the result lay.

Take `C[C@@H]1C[C@H]2[C@@H]3CCC4=CC(=O)C=C[C@]4(C)[C@@]3(F)[C@@H](O)C[C@]2(C)[C@@]1(O)C(=O)CO` [Dexamethasone]: in data set [1], the “BALF IL-13, Mean” value is given as 13.2** pg/ml and the “Total CD45 cells in BALF, Mean” value came out at 236574. Also, in data set [1] (in % (unit assumed)), the “Eosinophil (Frequency of CD45+) in BALF, Mean” value is 46.60** and the “Granulocyte (Frequency of CD45+) in BALF, Mean” value is on record as 51.88**.
As for “alicaforsen (GCCCAAGCTGGCATCCGTCA; chemistry not given here; listed as Homo sapiens) [SEQ ID NO: 1]”, the “antagonism of TLR-9 activation by E. coli genomic DNA” value in the data set with TLR9 [2] is on record as “remained antagonistic to activation of TLR-9”. The “tolerability of multiple topical administrations” value with dry eye murine model (1 mM and 10 mM, topical ocular) is on record as “clinically well tolerated”. Further, the “Corneal fluorescein staining score (mean ± SD)” value with dry eye murine model (Day 6, 1 mM) is recorded as 10.5 ± 2.6; in the data set with dry eye murine model (Day 6, 10 mM) it was 10.8 ± 2.0; in the data set on dry eye murine model (Day 10, 1 mM, listed as ALICAFORSEN), 9.3 ± 3.1; in the data set with dry eye murine model (Day 10, 1 mM, listed as alicaforsen) it was “lower than the Vehicle group”; with dry eye murine model (Day 10, 10 mM, listed as ALICAFORSEN) it was 9.7 ± 2.2; in the data set on dry eye murine model (Day 10, 10 mM, listed as alicaforsen), “lower than the Vehicle group”. For the same molecule, the “effect of spermine on secondary structure” value in data set [3] (5 mM spermine in the presence of 50 mM Na+) is on record as “completely abolished the secondary structure”. Further, the “structure retained (190 nm peak intensity)” value in data set [3] (50 and 150 mM sodium, 40° C.) is “at least 50%”. Further, the “loss of signal strength of 190 nm CD band” value in data set [3] (ddH20, heating to 80° C.) was greater than 85%. In addition, the “agonist activity at TLR-9” value with TLR9 [4] is listed as “devoid of agonist activity”. Also, the TLR-9 antagonism result in the data set with TLR9 [5] (ODN2006 as activator) is listed as “antagonist of TLR-9”. In the data set with TLR9 [5] (comparative dose responses, FIG. 3), the “concentration needed for TLR-9 antagonism relative to inhibition of ICAM-1 expression” value was “requires higher concentrations than the inhibition of ICAM-1 expression”. The “TLR-9 inhibitory activity of spermine-treated samples” value with TLR9 [6] is on record as “some activity is still observed”.
